In assay [1] the test system is BRD4. In words: ChIP-seq of BRD4 bound to putative enhancers near the GDF15 gene locus in AML cell lines. It is filed as cell-based. Particulars: 1 to 1000 nM, reanalysis of previously published ChIP-seq data ref 26. An excerpt: In 50% of NCI-60, we thereby found a correlation between drug-induced GDF15 and BRD4 expression. […]
Assay [2] relates to GDF15. Put plainly: Basal GDF15 gene expression in 21 lung and colorectal cancer cell lines treated with BI 894999 (RNA sequencing, qPCR). The assay is classed as cell-based, human. To be noted: of 21 treated lung and colorectal cancer cell lines; 10, 35 or 100 nM, 4 h or 24 h. An excerpt: (§1) GDF15 overexpression can be both chemotherapy- and cancer-driven. Various cancer cell types were reported to overexpress GDF15, thereby exacerbating the development of cachexia. Whilst a personalized selection of chemotherapeutic agents has the potential to mitigate chemotherapy-driven GDF15 overexpression in cancer cells, it leaves basal overexpression of GDF15 unaffected. […] To test this further, we analyzed our own gene expression data of 21 lung and colorectal cancer cell lines treated with the BET inhibitor BI 894999[26]. […] Additionally, we analyzed fold-changes of GDF11 which is well known for its rejuvenating effect but also associated with cachexia, partially through upregulation of GDF15[19]. […] The more GDF15 expression was reduced, the more GDF11 expression tended to get increased upon BET inhibition in the respective cell lines (Fig. 5A).
(§2) Figure 5 GDF15 gene suppression by BET inhibitors. Effect of BET inhibition on basal GDF15 and GDF11 expression in 21 cancer cell lines and on doxorubicin-induced GDF15 overexpression in hiPSC-CMs. (A) Treatment of cancer cell lines with the BET Inhibitor BI 894999 (Supplementary Table S3). Fold-change of relative gene expression. Normalized gene expression analysis performed using RNA sequencing and qPCR, 95% confidence interval. […]
A general note: Real-time PCR tracks product formation cycle by cycle.

Assay [3] concerns GDF15. Put plainly: Doxorubicin-induced GDF15 mRNA expression in hiPSC-CMs, successive treatment with BET inhibitors (qPCR). The assay is classed as cell-based, human. Particulars: BET inhibitor given subsequently to doxorubicin. An excerpt: (§3) Host cells are known to contribute to elevated GDF15 levels in cachexia patients when exposed to drug toxicity. […] We plotted GDF15 fold-changes against the respective reported half maximal inhibitory concentrations (IC50) of each BET inhibitor for BRD2, BRD3 and BRD4, whenever available. GDF15 fold-change thereby meant the ratio of GDF15 expression induced by doxorubicin only and doxorubicin combined with BET inhibitor normalized to cell viability.
(§4) Cardiotoxic drug (SCREEN-WELL® Cardiotoxicity library, BML-2850, ENZO) library was prepared by serial dilution of 10 mM stocks in DMSO to 9 different concentrations ranging from 0.001 to 10 mM, which were further diluted into assay plates to final concentrations ranging from 0.001 to 10 µM. […] The final concentration of DMSO for hiPSC-CMs assay was 0.1%. To investigate the influence of BET inhibitor treatment on doxorubicin induced GDF15 mRNA expression, hiPSC-CMs were pre-treated with 20 nM or 200 nM doxorubicin for 48 h and kept in medium without compound for 24 h before 24 h treatment with either 100 nM BI 894999 or 500 nM OTX015. […] Cancer cell lines were treated with 10 nM, 35 nM or 100 nM of BI 894999 for 4 h or 24 h (Supplementary Table S3).
(§5) For GDF15 mRNA quantification, total RNA was isolated from the cells using an RNeasy kit (Qiagen, 74106) to synthesize cDNA using a Taqman Reverse Transcription kit (Applied Biosystems, N8080234). Quantitative real-time PCR analysis was performed using QuantiNova SYBR Green PCR Kit (Qiagen, 208052) on a CFX96 Real-Time System (Bio-Rad) under the following amplification conditions: 95 °C for 2 min followed by 40 cycles of 95 °C for 5 s and 60 °C for 10 s. The primer sequences are GDF15-F: 5′-[…]-3′, GDF15-R: 5′-[…]-3′, ACTB-F: 5′-[…]-3′ and ACTB-R: 5′-[…]-3′. PCR data were analyzed using a modified relative expression software tool (REST) and the expression level of GDF15 gene was normalized to that of β-actin.

Assay [4] has as its system GDF11. Put plainly: GDF11 gene expression in 21 lung and colorectal cancer cell lines treated with BI 894999. The assay is classed as cell-based, human. To be noted: of 21 treated cell lines; 10, 35 or 100 nM, 4 h or 24 h.
Excerpt: as §1, §2

Assay [5] relates to cancer-driven cachexia. The arrangement: method as in PMID 29167426. To be noted: mice; cited from earlier work.
Assay [6] relates to GDF15. Put plainly: Doxorubicin-induced GDF15 secretion in hiPSC-CMs, simultaneous treatment with BET inhibitors (ELISA). It is filed as cell-based, human. Particulars: simultaneous 100 nM doxorubicin and 0.1 to 1000 nM BET inhibitor, 48 h.
Excerpt: as §3, §4
as §5, with “β-actin. For secreted GDF15 protein quantification, cell culture medium was collected after drug treatment and stored at − 20 °C until ELISA was performed using Human GDF-15 ELISA Kit (Abcam, ab155432) according to the manufacturer’s instruction. Resulting GDF15 concentrations were normalized to non-treated control and respective relative cell viability.” for “β-actin.”
Supplementary Figure S6. (A) Fold-change of GDF15 secretion by hiPSC-CMs after simultaneous
treatment with doxorubicin and seven BET Inhibitors for 48 h. Normalized to cell viability and non-treated […]
For orientation: ELISA stands for enzyme-linked immunosorbent assay.

The structures appear in SMILES notation.

The values that follow come from publication PMC10372009, “Molecular basis of GDF15 induction and suppression by drugs in cardiomyocytes and cancer cells toward precision medicine” (Scientific Reports, 2023).

In the case of `CNc1nc(-c2nc3ccc(N4CCN(C)CC4)cc3n2Cc2ccccc2)cn2c(C)nnc12` [BI 894999], the “BRD4 bound to putative enhancers in close vicinity to the GDF15 gene locus” value in assay [1] is “reduction of BRD4 bound to putative enhancers”. Besides, in assay [2], the “number of cell lines with significantly reduced GDF15 expression” value was 9. The “effect on doxorubicin-induced GDF15 overexpression (mRNA)” value in assay [3] is “suppressed”. The “number of cell lines with increased GDF11 expression” value in assay [4] is given as 19.

Turning to `Cc1sc2c(c1C)C(c1ccc(Cl)cc1)=N[C@@H](CC(=O)OC(C)(C)C)c1nnc(C)n1-2` [JQ1], in assay [5], the “effect on cancer-driven cachexia” value is listed as “counteract cancer-driven cachexia”. Besides, in assay [6], the “effect on doxorubicin-induced GDF15 overexpression (secretion)” value was “suppressed”.
